{
  "source": "paper PMC9706920",
  "about": "“Aryloxypropanolamine targets amyloid aggregates and reverses Alzheimer-like phenotypes in Alzheimer mouse models” (Alzheimer's Research & Therapy, 2022)",
  "tested_on": "APP/PS1 mice",
  "experiment": "Morris water maze in APP/PS1 mice",
  "assay_type": "in vivo, mouse",
  "settings": "30 mg/kg/day oral, 10 weeks, vs vehicle",
  "experimental": "To test whether YIAD002 could reduce amyloid plaques in another AD mouse model, APP/PS1 transgenic mice (n = 24) and wildtype mice (n = 5) were assessed at the age of 7.5 months. YIAD002 was dissolved in PBS (0.5% methylcellulose) at two different concentrations (10 and 30 mg/kg/day) and administrated daily to APP/PS1 mice (n = 8 for each group) via oral gavage for 8 weeks. As a control, vehicle solutions were orally administrated to littermate APP/PS1 mice (n = 8) and wildtype mice (n = 5).\nThe Morris water maze was used to evaluate whether YIAD002 could improve cognitive function in APP/PS1 mice during the tenth week of administration. A circular stainless pool with a radius of 90 cm and height of 50 cm with water kept at 22±1°C. Nontoxic opaque white paint was used to hide a platform with a radius of 9 cm hidden 1 cm beneath the surface. The training phase consisted of 5 days, in which the mice were given 60 s to find the platform. On circumstances where a mouse could not reach the platform within 60 s, it was placed on the platform where it had to remain for 10 s. The probe test took place on the sixth day, in which the platform was removed and the mice swam freely for 60 s. Swimming trajectories were recorded and analyzed using SMART VIDEO TRACKING Software (Panlab, USA). To assess cognitive improvement in YIAD002-treated mice groups, latency to target (seconds) and the number of target crossings were compared to vehicle-treated APP/PS1 mice. After the probe trial, the mice were sacrificed and the collected brains were fixed in formalin.",
  "data": [
    {"smiles": "CCC(C)(C)c1ccc(OCC(O)CN2CCCC2)c(C(C)(C)CC)c1.Cl", "note": "(stereo not drawn) [YIAD002, 1-(3-(2,4-Di-tert-pentylphenoxy)-2-hydroxypropyl)pyrrolidin-1-ium chloride]", "values": [
      {"measurement": "Escape latency after 5 days of training", "setting": "7.5-month-old APP/PS1 mice", "result": "significantly shortened"},
      {"measurement": "Latency to target, probe trial", "setting": "APP/PS1 mice", "result": "significantly shorter"},
      {"measurement": "Target crossings, probe trial", "setting": "APP/PS1 mice", "result": "increased target crossings"}
    ]}
  ]
}
